In US7964624B1, “Inhibitors of serine proteases” (priority 2005, dated 2011):
Where two headings read alike, the source gives them in different places.

Assays:
[1] = molecular target: T1, full-length hepatitis C viral protein NS3•4A (Hepatitis C virus genotype 1a, UniProt P27958); assay: biochemical; design: species or system HCV sub-type strain 1a; conditions: apparent Ki class
T1 construct: hexa-histidine (N); made in house; host or cells: Sf9 insect cells (baculovirus, pVL1392)

HCV NS3 protease domain = molecular target: T2, HCV NS3 protease domain (Hepatitis C virus genotype 1b, UniProt Q9WMX2); assay: biochemical; conditions: apparent Ki class
T2 construct: The first 181 amino acids of NS3 (residues 1027-1207 of the viral polyprotein); hexa-histidine (C); made in house; host or cells: E. coli BL21/DE3 pLysS

[2] = Enzyme Assay 2 (HCV NS3 Peptide Cleavage Assay) activity
[3] = Enzyme Assay 1 (HCV NS3 Protease Domain Peptide Cleavage Assay) activity

Structure (SMILES) | Ki [1, 2] [nM] | Ki (HCV NS3 protease domain; [3]) [nM] | Ki ([1]; read-out: Enzyme Assay 2 (HCV NS3 Peptide Cleavage Assay) activity) [nM] | Ki (HCV NS3 protease domain; read-out: Enzyme Assay 1 (HCV NS3 Protease Domain Peptide Cleavage Assay) activity) [nM]
CC(C)(C)[C@H](NC(=O)CC1CCCCC1)C(=O)N1C[C@@]2(CC(c3cc(Cl)c4c(c3)CCO4)=NO2)C[C@H]1C(=O)NC(CC1CCC1)C(=O)C(=O)NC1CC1 (stereo partly drawn) [Compound 18] | < 100 | < 100 |  | 
CCC[C@H](NC(=O)[C@@H]1C[C@]2(CC(c3cccc(Cl)c3)=NO2)CN1C(=O)[C@@H](NC(=O)CC1CCCCC1)C(C)(C)C)C(=O)C(=O)NCc1ccncc1 [Compound 461] | 100 to 500 | > 500 |  | 
CCC[C@H](NC(=O)[C@@H]1C[C@]2(CC(c3cccc(Cl)c3)=NO2)CN1C(=O)[C@@H](CC(=O)NCc1ccccc1)C(C)C)C(=O)C(=O)NC1CC1 [Compound 10] | > 500 | > 500 |  | 
CCC[C@H](NC(=O)[C@@H]1C[C@]2(CC(c3cccc(Cl)c3)=NO2)CN1C(=O)C(NS(=O)(=O)c1ccc(F)cc1)C(C)C)C(=O)C(=O)NC1CC1 (stereo partly drawn) [Compound 100] | > 500 | > 500 |  | 
CCC[C@H](NC(=O)[C@@H]1C[C@]2(CC(c3cccc(Cl)c3)=NO2)CN1C(=O)[C@@H](NC(=O)CC1CCCCC1)C(C)(C)C)C(=O)C(=O)N1CCC1 [Compound 79] | < 100 | 100 to 500 |  | 
CCC[C@H](NC(=O)[C@@H]1C[C@]2(CC(c3ccc(OC)c(C)c3)=NO2)CN1C(=O)[C@@H](NC(=O)CC1CCCCC1)C(C)(C)C)C(=O)C(=O)NC1CC1 [Compound 500] | < 100 | 100 to 500 |  | 
CCC[C@H](NC(=O)[C@@H]1CC2(CC(c3cccc(Cl)c3)=NO2)CN1C(=O)[C@H](Cc1ccc(OC)cc1)NC(C)=O)C(=O)C(=O)NC1CC1 (stereo partly drawn) [Compound 88] | 100 to 500 | > 500 |  | 
CCC[C@H](NC(=O)[C@@H]1C[C@]2(CC(c3cccc(Cl)c3)=NO2)CN1C(=O)CN1C(=O)OC[C@@H]1c1ccccc1)C(=O)C(=O)NC1CC1 [Compound 397] | > 500 | > 500 |  | 
CCC[C@H](NC(=O)[C@@H]1C[C@]2(CC(c3cccc(Cl)c3)=NO2)CN1C(=O)[C@@H](NC(=O)CC1CCCCC1)C(C)(C)C)C(=O)C(=O)NCc1cccc(-n2cccn2)c1 [Compound 298] | 100 to 500 | 100 to 500 |  | 
CCC[C@H](NC(=O)[C@@H]1C[C@]2(CC(c3cc(Cl)cc(OC)c3OC)=NO2)CN1C(=O)[C@@H](NC(=O)CC1CCCCC1)C(C)(C)C)C(=O)C(=O)NC1CC1 [Compound 321] | < 100 | 100 to 500 |  | 
CCC[C@H](NC(=O)[C@@H]1C[C@]2(CC(c3cccc(Cl)c3)=NO2)CN1C(=O)[C@@H](NC(=O)CC1CCC(C)(O)CC1)C(C)(C)C)C(=O)C(=O)NC1CC1 (stereo partly drawn) [Compound 575] |  |  | < 100 | < 100
CCCNC(=O)C(=O)[C@H](CCC)NC(=O)[C@@H]1C[C@]2(CC(c3cccc(Cl)c3)=NO2)CN1C(=O)[C@@H](NC(=O)CC1CCCCC1)C(C)(C)C [Compound 508] | 100 to 500 | 100 to 500 |  | 
CCC[C@H](NC(=O)[C@@H]1C[C@]2(CC(c3cccc(Cl)c3)=NO2)CN1C(=O)c1cc2cc(Br)ccc2[nH]1)C(=O)C(=O)NC1CC1 [Compound 46] | > 500 | > 500 |  | 
CCC[C@H](NC(=O)[C@@H]1C[C@]2(CC(c3cc(Cl)cc4c3OCC4)=NO2)CN1C(=O)[C@@H](NC(=O)CC1CCCCC1)C(C)(C)C)C(=O)C(=O)NC1CC1 [Compound 134] | < 100 | 100 to 500 |  | 
CCC[C@H](NC(=O)[C@@H]1C[C@]2(CC(c3cccc(Cl)c3)=NO2)CN1C(=O)CCCC(=O)Nc1ccc(C)cc1C)C(=O)C(=O)NC1CC1 [Compound 246] | > 500 | > 500 |  | 
CCC[C@H](NC(=O)[C@@H]1C[C@]2(CC(c3cccc(Cl)c3)=NO2)CN1C(=O)[C@@H](NC(=O)CC1CCCCC1)C(C)(C)C)C(=O)C(=O)NCc1ccco1 [Compound 441] | 100 to 500 | > 500 |  | 
CCC[C@H](NC(=O)[C@@H]1C[C@]2(CC(c3cccc(Cl)c3)=NO2)CN1C(=O)CC(C)(C)C)C(=O)C(=O)NC1CC1 [Compound 351] | > 500 | > 500 |  | 
CCC[C@H](NC(=O)[C@@H]1C[C@]2(CC(c3cccc(Cl)c3)=NO2)CN1C(=O)[C@@H](NC(=O)CC1CCCCC1)C(C)(C)C)C(=O)C(=O)NCCc1cccc(OC)c1 [Compound 540] | 100 to 500 | 100 to 500 |  | 
CCC[C@H](NC(=O)[C@@H]1C[C@]2(CC(c3cc(Cl)c4c(c3)CCO4)=NO2)CN1C(=O)[C@@H](NC(=O)CC1CCCCC1)C(C)(C)C)C(=O)C(=O)NC1CC1 [Compound 499] | < 100 | < 100 |  | 
CCC[C@H](NC(=O)[C@@H]1C[C@]2(CC(c3cccc(Cl)c3)=NO2)CN1C(=O)[C@@H](NC(=O)CC1CCCCC1)C(C)(C)C)C(=O)C(=O)N1CCCCC1 [Compound 568] | > 500 | > 500 |  | 
CCC[C@H](NC(=O)[C@@H]1C[C@]2(CC(c3cccc(Cl)c3)=NO2)CN1C(=O)[C@@H](NC(=O)[C@@H](C)C1CCCCC1)C(C)(C)C)C(=O)C(=O)NC1CC1 [Compound 284] | 100 to 500 | 100 to 500 |  | 

Structure (SMILES) | Ki [1, 2] [nM] | Ki (HCV NS3 protease domain; [3]) [nM] | Ki ([1]; read-out: Enzyme Assay 2 (HCV NS3 Peptide Cleavage Assay) activity) [nM] | Ki (HCV NS3 protease domain; read-out: Enzyme Assay 1 (HCV NS3 Protease Domain Peptide Cleavage Assay) activity) [nM]
CCC[C@H](NC(=O)[C@@H]1C[C@]2(CC(c3cccc(Cl)c3)=NO2)CN1C(=O)[C@@H](NC(=O)[C@@H]1CCC(=O)N1C(C)C)C(C)(C)C)C(=O)C(=O)NC1CC1 [Compound 241] | 100 to 500 | > 500 |  | 
C=C[C@@H]1C[C@]1(NC(=O)[C@@H]1C[C@]2(CC(c3cccc(Cl)c3)=NO2)CN1C(=O)[C@@H](NC(=O)OC(C)(C)C)C(C)(C)C)C(=O)O [Compound 439] | > 500 | > 500 |  | 
CCC[C@H](NC(=O)[C@@H]1C[C@]2(CC(c3csc(Cl)c3)=NO2)CN1C(=O)[C@@H](NC(=O)CC1CCCCC1)C(C)(C)C)C(=O)C(=O)NC1CC1 [Compound 62] | 100 to 500 | 100 to 500 |  | 
CCC[C@H](NC(=O)[C@@H]1C[C@]2(CC(c3cccc(Cl)c3)=NO2)CN1C(=O)[C@@H](NC(=O)CC1CCCCC1)C(C)(C)C)C(=O)C(=O)N(C)CC [Compound 182] | > 500 | > 500 |  | 
CCC[C@H](NC(=O)[C@@H]1C[C@]2(CC(c3cccc(Cl)c3)=NO2)CN1C(=O)[C@@H](NS(=O)(=O)c1ccc(OC)cc1)C(C)C)C(=O)C(=O)NC1CC1 [Compound 489] | 100 to 500 | > 500 |  | 
CCC[C@H](NC(=O)[C@@H]1C[C@]2(CC(c3cccc(Cl)c3)=NO2)CN1C(=O)[C@H](CSC(C)(C)C)NC(=O)CC1CCCCC1)C(=O)C(=O)NC1CC1 [Compound 437] | > 500 | > 500 |  | 
CCC[C@H](NC(=O)[C@@H]1C[C@]2(CC(c3cccc(Cl)c3)=NO2)CN1C(=O)[C@@H](NC(=O)CC1CCC2(CC1)OCCO2)C(C)(C)C)C(=O)C(=O)NC1CC1 [Compound 445] | < 100 | 100 to 500 |  | 
CCC[C@H](NC(=O)[C@@H]1C[C@]2(CC(c3cccc(Cl)c3)=NO2)CN1C(=O)[C@H](Cc1ccccc1C(F)(F)F)NC(=O)CC1CCCCC1)C(=O)C(=O)NC1CC1 [Compound 289] | 100 to 500 | > 500 |  | 
CCC[C@H](NC(=O)[C@@H]1C[C@]2(CC(c3cccc(Cl)c3)=NO2)CN1C(=O)c1[nH]c2ccccc2c1CC(=O)N(CC)CC)C(=O)C(=O)NC1CC1 [Compound 420] | > 500 | > 500 |  | 
CCC[C@H](NC(=O)[C@@H]1C[C@]2(CC(c3cccc(Cl)c3)=NO2)CN1C(=O)[C@@H](NC(=O)CC1CCCCC1)[C@@H](C)c1ccccc1)C(=O)C(=O)NC1CC1 [Compound 125] | 100 to 500 | 100 to 500 |  | 
CCC[C@H](NC(=O)[C@@H]1C[C@]2(CC(c3cccc(Cl)c3)=NO2)CN1C(=O)[C@@H](NC(=O)CC1CCCCC1)C(C)(C)C)C(=O)C(=O)Nc1ccc(F)c(F)c1 [Compound 573] | > 500 | > 500 |  | 
CCC[C@H](NC(=O)[C@@H]1C[C@]2(CC(c3cccc(Cl)c3)=NO2)CN1C(=O)C1CCN(c2ccccc2)C1=O)C(=O)C(=O)NC1CC1 (stereo partly drawn) [Compound 65] | > 500 | > 500 |  | 
C=CCOC(=O)N[C@H](C(=O)N1C[C@@]2(CC(c3cccc(Cl)c3)=NO2)C[C@H]1C(=O)N[C@]1(C(=O)O)C[C@H]1C=C)C(C)(C)C [Compound 460] | > 500 | > 500 |  | 
CC(C)(C)[C@H](NC(=O)CC1CC2CCC1C2)C(=O)N1C[C@@]2(CC(c3cccc(Cl)c3)=NO2)C[C@H]1C(=O)N[C@@H](CC1CC1)C(=O)C(N)=O (stereo partly drawn) [Compound 13] | < 100 | < 100 |  | 
CCC[C@H](NC(=O)[C@@H]1C[C@]2(CC(c3cccc(Cl)c3)=NO2)CN1C(=O)[C@@H](NC(=O)Cc1cncc(Br)c1)C(C)(C)C)C(=O)C(=O)NC1CC1 [Compound 339] | < 100 | 100 to 500 |  | 
CCC[C@H](NC(=O)[C@@H]1C[C@]2(CC(c3cc(Cl)cnc3OC)=NO2)CN1C(=O)[C@@H](NC(=O)CC1CCCCC1)C(C)(C)C)C(=O)C(=O)NC1CC1 [Compound 165] | < 100 | 100 to 500 |  | 
CCC[C@H](NC(=O)[C@@H]1C[C@]2(CC(c3cccc(Cl)c3)=NO2)CN1C(=O)[C@@H](NC(=O)CC1CCCCC1)C(C)(C)C)C(=O)C(=O)NC(CC)CC [Compound 300] | 100 to 500 | 100 to 500 |  | 
CCC[C@H](NC(=O)[C@@H]1C[C@]2(CC(c3cccc(Cl)c3)=NO2)CN1C(=O)[C@@H](NC(=O)CC1CCCCC1)C(C)(C)C)C(=O)C(=O)NCc1cc(-c2ccc(Cl)cc2)no1 [Compound 433] | > 500 | > 500 |  | 
CCC[C@H](NC(=O)[C@@H]1C[C@]2(CC(c3cccc(Cl)c3)=NO2)CN1C(=O)[C@H](CC(C)C)NC(C)=O)C(=O)C(=O)NC1CC1 [Compound 98] | 100 to 500 | > 500 |  | 
CCC[C@H](NC(=O)[C@@H]1C[C@]2(CC(c3cccc(Cl)c3)=NO2)CN1C(=O)c1ccc(Cl)cc1Nc1ccc(OC)nc1)C(=O)C(=O)NC1CC1 [Compound 248] | > 500 | > 500 |  | 
C#CC[C@H](C(=O)N[C@H](C(=O)N1C[C@@]2(CC(c3cccc(Cl)c3)=NO2)C[C@H]1C(=O)N[C@@H](CCC)C(=O)C(=O)NC1CC1)C(C)(C)C)C1CCCCC1 [Compound 266] | 100 to 500 | 100 to 500 |  | 
